# Experimental data: patent publication US20230250096A1, “SUBSTITUTED PHENYL-1H-PYRROLO[2,3-c] PYRIDINE DERIVATIVES” (Janssen Pharmaceutica NV, priority 2021, published 2023)
# Tests used:
# [1] = biological target: T1, menin/MLL (terbium chelate-labeled menin, FITC-MBM1 peptide) (Homo sapiens, UniProt O00255, T541A); experiment: Menin/MLL homogenous time-resolved fluorescence (HTRF) assay; assay type: binding; details: 30 min incubation
# T1 construct: Menin (a.a 1-610-6xhis tag, 2.3 mg/mL in 20 mM Hepes)
# T1 sequence (O00255 with tags, fused parts or gaps T541A): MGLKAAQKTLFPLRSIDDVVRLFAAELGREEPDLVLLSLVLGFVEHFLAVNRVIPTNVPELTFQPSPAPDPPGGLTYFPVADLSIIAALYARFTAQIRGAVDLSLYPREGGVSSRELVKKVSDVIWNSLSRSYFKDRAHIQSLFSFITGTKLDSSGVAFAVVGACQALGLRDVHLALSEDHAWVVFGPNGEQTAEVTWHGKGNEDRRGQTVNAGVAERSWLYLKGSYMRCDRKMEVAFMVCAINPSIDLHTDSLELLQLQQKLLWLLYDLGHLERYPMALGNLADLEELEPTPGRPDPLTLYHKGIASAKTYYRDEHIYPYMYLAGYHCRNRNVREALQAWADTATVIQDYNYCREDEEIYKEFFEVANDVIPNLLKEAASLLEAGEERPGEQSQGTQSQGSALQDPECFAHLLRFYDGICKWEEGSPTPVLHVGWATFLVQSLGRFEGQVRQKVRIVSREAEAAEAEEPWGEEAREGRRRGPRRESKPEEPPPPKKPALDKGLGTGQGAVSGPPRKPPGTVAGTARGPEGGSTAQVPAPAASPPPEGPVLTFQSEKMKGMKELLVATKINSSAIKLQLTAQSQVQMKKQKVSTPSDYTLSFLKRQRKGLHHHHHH
# How it was run: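 Competition binding read by time-resolved FRET (FITC 520 nm over terbium 490 nm) after compound meets labeled menin 1-610-His […] for 30 min, then FITC-MBM1 (75 nM) for 15 min, ambient temperature, 0.5% DMSO. Eleven-point four-fold dilutions, usually starting at 10 μM, fitted to four-parameter curves for IC50.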
# MEIS1 mRNA expression = MEIS1 mRNA expression assay (Quantigene Singleplex) in MOLM14 cells; assay type: cell-based, human; details: 48 hours incubation
# How it was run: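 Read-out: MEIS1 transcript counts, background-subtracted and divided by RPL28, expressed as fold change over DMSO-treated cells, then dose-response modelled for IC50. MOLM14 cells (3,750/well) received graded compound for 48 h before lysis and QuantiGene hybridization at 55 °C.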
Compound,IC50 [1] [nM],IC50 (MEIS1 mRNA expression) [nM],"IC50 (MEIS1 mRNA expression; Homo sapiens, MOLM-14, 48 h) [nM]"
CC(=O)NC1CCC(N2CC[C@@H](Cc3cn(-c4ccc(F)cc4C(=O)N(C)C(C)C)c4cncc(C)c34)C2)CC1 (some centres unmarked) [Compound 201],0.063,47,
CNC(=O)N1CCC(CN2CCC(Cc3cn(-c4ccc(F)cc4C(=O)N(C)C(C)C)c4cncc(C)c34)CC2)CC1 [Compound 202],0.081,,25
CON(C)C(=O)N1CCC(CN2CCC(Cc3cn(-c4ccc(F)cc4C(=O)N(C)C(C)C)c4cncc(C)c34)CC2)CC1 [Compound 203],0.069,,43
Cc1cncc2c1c(CC1CCN(CC3CCN(C(=O)N4CCOCC4)CC3)CC1)cn2-c1ccc(F)cc1C(=O)N(C)C(C)C [Compound 204],0.091,,79
Cc1cncc2c1c(C[C@@H]1CCN(CC3CCC(O)CC3)C1)cn2-c1ccc(F)cc1C(=O)N(C)C(C)C (some centres unmarked) [Compound 205],0.106,,19
Cc1cncc2c1c(C[C@@H]1CCN(CC3CCN(C(N)=O)CC3)C1)cn2-c1ccc(F)cc1C(=O)N(C)C(C)C [Compound 207],0.016,,29
CC(=O)N1CC2CC(C1)C2N1CC[C@H](Cc2cn(-c3ccc(F)cc3C(=O)N(C)C(C)C)c3cncc(C)c23)C1 (some centres unmarked) [Compound 208],0.147,,281
CC(=O)N1CC2CC(C1)C2N1CC[C@@H](Cc2cn(-c3ccc(F)cc3C(=O)N(C)C(C)C)c3cncc(C)c23)C1 (some centres unmarked) [Compound 209],0.202,,> 1000
CC(=O)NC1CCC(N2CC[C@H](Cc3cn(-c4ccc(F)cc4C(=O)N(C)C(C)C)c4cncc(C)c34)C2)CC1 (some centres unmarked) [Compound 211],0.032,113,
CC(=O)N1CCC(CN2CCC(Cc3cn(-c4ccc(F)cc4C(=O)N(C)C(C)C)c4cncc(C)c34)C2C)CC1 (centres unmarked) [Compound 228],0.061,8,
Cc1cncc2c1c(CC1CN(CC3CCOCC3)C1)cn2-c1ccc(F)cc1C(=O)N1CCC2CC21 (centres unmarked) [Compound 262],0.018,,15
Cc1cncc2c1c(CC1CN(CC3CCOCC3)C1)cn2-c1ccc(F)cc1C(=O)N1CC2CC1CO2 (centres unmarked) [Compound 264],0.034,,25
Cc1cncc2c1c(CC1CN(CC3CCOCC3)C1)cn2-c1ccc(F)cc1C(=O)N1CCCC1CO (centres unmarked) [Compound 268],0.149,,37
Cc1cncc2c1c(CC1CN(CC3CCOCC3)C1)cn2-c1ccc(F)cc1C(=O)N1CCC[C@H]1C [Compound 279],0.025,,17
Cc1cncc2c1c(CC1CN(CC3CCOCC3)C1)cn2-c1ccc(F)cc1C(=O)N(CCO)C(C)C [Compound 281],0.058,,13
CC(=O)N1CCC(CN2CC[C@@H](Cc3cn(-c4ccc(F)cc4C(=O)N4CCC5CC54)c4cncc(C)c34)C2)CC1 (some centres unmarked) [Compound 311],0.031,,18
CC(=O)N1CCC(CN2CC[C@@H](Cc3cn(-c4ccc(F)cc4C(=O)N4CC5CC4CO5)c4cncc(C)c34)C2)CC1 (some centres unmarked) [Compound 312],0.058,,55
CC(=O)N1CCC(CN2CC[C@@H](Cc3cn(-c4ccc(F)cc4C(=O)N4CCC[C@H]4C)c4cncc(C)c34)C2)CC1 [Compound 315],0.071,,37
CC(=O)N1CCC(CN2CC[C@@H](Cc3cn(-c4ccc(F)cc4C(=O)N4[C@@H](C)CC[C@@H]4C)c4cncc(C)c34)C2)CC1 [Compound 316],0.055,,29
CC(=O)N1CCC(CN2CC[C@@H](Cc3cn(-c4ccc(F)cc4C(=O)N4CCC[C@@H]4C)c4cncc(C)c34)C2)CC1 [Compound 319],0.293,,240
CC(=O)N1CCC(CN2CC[C@@H](Cc3cn(-c4ccc(F)cc4C(=O)N(CC(C)O)C(C)C)c4cncc(C)c34)C2)CC1 (some centres unmarked) [Compound 320],0.078,,23
Cc1cncc2c1c(C[C@@H]1CCN(CC3CCN(C(=O)C(C)C)CC3)C1)cn2-c1ccc(F)cc1C(=O)N1CCC[C@H]1CO [Compound 328],0.101,,~154
